Results published in patent US12215111B2, “Imidazopyridazine IL-17 inhibitor compounds” (Janssen Pharmaceutica NV, priority 2021, dated 2025).

How the values were obtained:
[1] = target: T1, IL-17A(FLAG-Tagged): IL-17RA(His-Tagged) (Homo sapiens, UniProt Q16552, K93Q); assay: IL-17A(FLAG-tagged):IL-17RA(His-tagged) binding disruption Eu-HTRF assay, Protocol 2; settings: FLAG tagged IL-17A at 2× final concentration (1 nM); simple average if tested more than once
Excerpt: (§1) IL-17A(FLAG-Tagged): IL-17RA(His-Tagged) Binding Disruption Eu-HTRF Assay
(§2) An antibody directed against the FLAG tag of IL-17A (SEQ ID NO:1) is labeled with the HTRF donor chromophore (Europium-cryptate). IL-17A is present as a dimer that is “locked into” this quaternary structure due to the formation of loop-spanning […] disulfide bridges. The construct of IL-17RA used in the assay excludes the outer-membrane portion of the receptor and is fused to a C-terminal 10×His tag (SEQ ID NO:2). An antibody directed against the His tag of the IL-17RA chimera is labeled with the HTRF acceptor chromophore (“D2”). The fluorescence-resonance energy transfer (FRET) depends on the vicinity of the donor chromophore to the acceptor, and interruption of the binding between the IL-17A and IL-17RA causes the reduction/loss of FRET. Therefore, this assay allows to evaluate the compound effect on the binding IL-17A and IL-17RA by monitoring the fluorescence intensity of donor vs acceptor. The assay was run using either Protocol 1 or Protocol 2 described below.
(§3) Protocol 2. 40 nl of 2-fold serial diluted compound solution for total 22 dilution points is added into each well of a 1536-well, white, low-volume, non-binding plate (Greiner #782904), then 2 μl of FLAG tagged IL-17A at 2× final concentration (1 nM) in solution of PBS+0.01% Triton-X100 is added to each well. The assay plate is briefly centrifuged then incubated for 1 h at rt. A mixed solution is prepared containing 2×5 nM 10HIS×IL-17RA, 2×2.5 nM Eu-anti-FLAG (CISBIO), 2×5 nM D2-anti-HIS (CISBIO) in PBS+0.01% Triton-X100+200 mM Potassium Fluoride (Sigma 60238) and […] of mix is added to each well of the assay plate. The plate is briefly centrifuged then incubated for 2 h at rt. The HTRF intensities at the wavelength of donor (615 nm) and acceptor (665 nm) are measured using BMG Pherastar. The ratio between intensities at two wavelengths is calculated and plotted against the compound concentration and the data is fitted to a one-site competition model to yield IC50 of the compound.

[2] = tested on: IL-17A-induced G-CSF production in human normal keratinocyte (NHK); assay: NHK assay: IL-17A-induced G-CSF production in normal human keratinocytes; type: cell-based; settings: Homo sapiens, Keratinocyte; IL-17A 5 ng/mL, 24 h at 37° C., G-CSF by HTRF; simple average if tested more than once
Procedure: IL-17A acts directly on keratinocytes through binding to dimeric receptor IL-17RA/RC and drives the production of a number of inflammatory mediators known to be elevated in psoriasis lesional tissue. IL-17A small molecule inhibitors that block the IL-17A to interact with IL-17R would inhibit the IL-17A signaling in its targeted cells such as keratinocytes. The compound functional activity is evaluated for its impact on IL-17A-induced G-CSF production in human normal keratinocyte (NHK).
Adult normal human keratinocytes are cultured in keratinocyte growth medium (Lonza) in a flask till reaching ˜90% confluence, then cells are transferred to a 384-well plate at density of 3000-4000 cell/well. Recombinant human IL-17A (Gibco PHC9174) is pre-incubated with titrated compound or DMSO for 1 h at rt then added to the cell culture plate. The final concentration of IL-17A is 5 ng/mL and DMSO is 0.2%, in the culture containing 5% FBS. Cells are cultured/treated for 24 h at 37° C. Supernatants are collected and G-CSF production is measured through HTRF technology using Human G-CSF Kit (CisBio). G-CSF concentration was extrapolated from the standard curve and IC50 is determined using GraphPad Prism. Cell viability is also evaluated using CellTiter-Glo kit (Promega) and effect of compound on cell viability is compared to DMSO control.

[3] = target: T1, IL-17A(FLAG-Tagged): IL-17RA(His-Tagged); assay: IL-17A(FLAG-tagged):IL-17RA(His-tagged) binding disruption Eu-HTRF assay, Protocol 1; settings: FLAG tagged IL-17A at 2× final concentration (2.5 nM); simple average if tested more than once
Excerpt: as §1, §2
as §3, with “Protocol 1:” for “Protocol 2.”, “40 nL” for “40 nl”, “concentration (2.5” for “concentration (1”, “donor (620” for “donor (615”

T1 sequence (Q16552 with tags, fused parts or gaps K93Q): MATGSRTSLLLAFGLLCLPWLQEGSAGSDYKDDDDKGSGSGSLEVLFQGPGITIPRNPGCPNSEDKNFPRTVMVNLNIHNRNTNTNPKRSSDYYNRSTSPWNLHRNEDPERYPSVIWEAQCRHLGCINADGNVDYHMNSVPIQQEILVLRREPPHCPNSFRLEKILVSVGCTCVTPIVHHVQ

Compound	IC50 [1] [µM]	IC50 [3] [µM]	IC50 [2] [µM]
CC(C)n1nccc1C(=O)N[C@H](c1cn2ncc([C@@H](COC3CC3)N3C[C@@H](C(F)(F)F)NC3=O)cc2n1)C1CCC(F)(F)CC1 (single isomer, unassigned) [Example 43]	< 4		< 4
Cc1nonc1C(=O)N[C@H](c1cn2ncc([C@@H](C3CC3)N3C[C@@H](C4CC4)NC3=O)cc2n1)C1CCC(F)(F)CC1 [Example 17, N—[(S)—[7-[(R)-Cyclopropyl-[(4R)-4-cyclopropyl-2-oxo-imidazolidin-1-yl]methyl]imidazo[1,2-b]pyridazin-2-yl]-(4,4-difluorocyclohexyl)methyl]-4-methyl-1,2,5-oxadiazole-3-carboxamide]		< 4	< 4
Cc1nonc1C(=O)N[C@H](c1cn2ncc([C@@H](C3CC3)N3C[C@@H](C(C)C)NC3=O)cc2n1)C1CCC(F)(F)CC1 [Example 18, N—[(S)—[7-[(R)-Cyclopropyl-[(4R)-4-isopropyl-2-oxo-imidazolidin-1-yl]methyl]imidazo[1,2-b]pyridazin-2-yl]-(4,4-difluorocyclohexyl)methyl]-4-methyl-1,2,5-oxadiazole-3-carboxamide]		< 4	< 4
Cc1nonc1C(=O)N[C@H](c1cn2ncc([C@H](N3C[C@@H](C(F)(F)F)NC3=O)C3(C#N)CCC3)cc2n1)C1CCC(F)(F)CC1 [Example 22, N—((S)-(7-((S)—(1-Cyanocyclobutyl)((S)-2-oxo-4-(trifluoromethyl)imidazolidin-1-yl)methyl)imidazo[1,2-b]pyridazin-2-yl)(4,4-difluorocyclohexyl)methyl)-4-methyl-1,2,5-oxadiazole-3-carboxamide]		< 4	< 4
COC[C@H](c1cnn2cc([C@@H](NC(=O)c3nonc3C)C3CCC(F)(F)CC3)nc2c1)N1C[C@@H](C2(C#N)CC2)NC1=O [Example 25, N—((S)-(7-((S)-1-((R)-4-(1-Cyanocyclopropyl)-2-oxoimidazolidin-1-yl)-2-methoxyethyl)imidazo[1,2-b]pyridazin-2-yl)(4,4-difluorocyclohexyl)methyl)-4-methyl-1,2,5-oxadiazole-3-carboxamide]	< 4		< 4
COC[C@H](c1cnn2cc([C@@H](NC(=O)c3nonc3C)C3CCC(F)(F)CC3)nc2c1)N1C[C@@H](C(F)F)NC1=O [Example 26, N—((S)—(4,4-Difluorocyclohexyl)(7-((S)-1-((S)-4-(difluoromethyl)-2-oxoimidazolidin-1-yl)-2-methoxyethyl)imidazo[1,2-b]pyridazin-2-yl)methyl)-4-methyl-1,2,5-oxadiazole-3-carboxamide]	< 4		< 4
COCC[C@H](c1cnn2cc([C@@H](NC(=O)c3nonc3C3CC3)C3CCC(F)(F)CC3)nc2c1)N1C[C@@H](C(F)(F)F)NC1=O [Example 41, 4-Cyclopropyl-N—((S)—(4,4-difluorocyclohexyl)(7-((R)-3-methoxy-1-((S)-2-oxo-4-(trifluoromethyl)imidazolidin-1-yl)propyl)imidazo[1,2-b]pyridazin-2-yl)methyl)-1,2,5-oxadiazole-3-carboxamide]	< 4		< 4

The next lines start with results.

IC50 [1] [µM]	IC50 [3] [µM]	Compound	IC50 [2] [µM]
< 4		COC[C@H](c1cnn2cc([C@H](CCC(C)(C)C(F)(F)F)NC(=O)c3nonc3C)nc2c1)N1C[C@@](C)(C(F)(F)F)NC1=O (single isomer, unassigned) [Example 31]	< 4
< 4		COCCC(c1cnn2cc([C@@H](NC(=O)c3nonc3C)C3CCC(F)(F)CC3)nc2c1)N1C[C@@H](C(F)(F)F)NC1=O (single isomer, unassigned) [Example 40, N—((S)—(4,4-Difluorocyclohexyl)(7-((R*)-3-methoxy-1-((S)-2-oxo-4-(trifluoromethyl)imidazolidin-1-yl)propyl)imidazo[1,2-b]pyridazin-2-yl)methyl)-4-methyl-1,2,5-oxadiazole-3-carboxamide]	< 4
< 4		COCCC(c1cnn2cc([C@@H](NC(=O)c3nonc3OC)C3CCC(F)(F)CC3)nc2c1)N1C[C@@H](C(F)(F)F)NC1=O (single isomer, unassigned) [Example 42, N—((S)—(4,4-Difluorocyclohexyl)(7-((R*)-3-methoxy-1-((S)-2-oxo-4-(trifluoromethyl)imidazolidin-1-yl)propyl)imidazo[1,2-b]pyridazin-2-yl)methyl)-4-methoxy-1,2,5-oxadiazole-3-carboxamide]	< 4
	< 4	[2H]C([2H])([2H])C([2H])([2H])n1nccc1C(=O)N[C@@H](COC(C)(C)C(F)(F)F)c1cn2ncc([C@@H](COC)N3C[C@@H](C(F)(F)F)NC3=O)cc2n1 [Example 12]	< 4
< 4		COCC(c1cnn2cc([C@H](COC(C)(C)C(F)(F)F)NC(=O)c3nonc3C)nc2c1)N1C[C@@](C)(C(F)(F)F)NC1=O (some centres unmarked) [Example 23]	< 4
< 4		COC[C@H](c1cnn2cc([C@@H](NC(=O)c3nonc3C)[C@@H](C)O[C@H](C)C(F)(F)F)nc2c1)N1C[C@@H](C(F)(F)F)NC1=O [Example 27, N-((1R,2R)-1-(7-((S)-2-Methoxy-1-((S)-2-oxo-4-(trifluoromethyl)imidazolidin-1-yl)ethyl)imidazo[1,2-b]pyridazin-2-yl)-2-(((R)-1,1,1-trifluoropropan-2-yl)oxy)propyl)-4-methyl-1,2,5-oxadiazole-3-carboxamide]	< 4
	< 4	COC[C@H](c1cnn2cc([C@H](COC(C)(C)C(F)(F)F)NC(=O)c3ncnn3C(C)C)nc2c1)N1C[C@@H](C(F)(F)F)NC1=O [Example 36, 1-Isopropyl-N—((R)-1-(7-((S)-2-methoxy-1-((S)-2-oxo-4-(trifluoromethyl)imidazolidin-1-yl)ethyl)imidazo[1,2-b]pyridazin-2-yl)-2-((1,1,1-trifluoro-2-methylpropan-2-yl)oxy)ethyl)-1H-1,2,4-triazole-5-carboxamide]	< 4
< 4		Cc1nonc1C(=O)N[C@@H](CC(C)(C)C(F)(F)F)c1cn2ncc([C@@H](COC3CC3)N3C[C@@H](C(F)(F)F)NC3=O)cc2n1 [Example 37]	< 4
< 4		Cc1nonc1C(=O)N[C@@H](COC(C)(C)C(F)(F)F)c1cn2ncc([C@@H](COC3CC3)N3C[C@@H](C(F)(F)F)NC3=O)cc2n1 [Example 45]	< 4
